Measurements as given in patent US6483013B1, “Method for agrobacterium mediated transformation of cotton” (Bayer BioScience N.V., priority 1999, dated 2002).
Where “and” joins values, the source holds several entries; their conditions need not be identical. Identical values can stand only once.

Test system: cotton embryogenic callus
Test: β-glucuronidase (GUS) assay of embryogenic cotton callus after cocultivation with Agrobacterium strain A3311
Assay type: cell-based, cotton (variety Coker 312)
Protocol: Embryogenic cotton callus was obtained in the following way: Cotton seeds of variety Coker 312 were disinfected using a 12% sodium hypochloride solution, and germinated individually in tubes containing a solution of gelrite 2/g/l H2O and 0.94 g/l MgCl2.6H2O. The tubes were incubated in the dark at 27-28° C. After 10 to 14 days, seedlings are collected, the hypocotyls of the seedlings were cut in segments of about 1 cm and incubated on medium 104 (without plant hormones) at 28° C. under a regime of 16 hr light and 8 hr dark. Every three weeks, the segments were transferred to fresh medium, until embryogenic callus was formed (usually after about 9 weeks). This callus was removed from the explants and cultured further on medium 104.
Agrobacterium strain A 3311 cells were grown on AB medium or MAG medium, collected and resuspended in M104 liquid medium, pH 5.2 (either with or without 100 μM acetosyringone (AS)) or MAG medium at a density of about 1×10^9 CFU/ml. Small embryogenic cotton callus clumps were collected, washed in liquid medium 104 at pH 5.2, and immersed in the Agrobacterium suspension for about 20 minutes. The infected embryogenic calli were than transferred to solid medium 104, pH 5.2, supplemented with either 100 μM AS, 0.5 g/l casamino acids, 100 μM AS and 0.5 g/l casamino acids, or not supplemented at all, and incubated for cocultivation during 4 days in the dark at about 24° C.
After the cocultivation phase, the callus clumps were transferred to selective medium 104 supplemented with 50 mg/l kanamycin and 500mg/l Claforan.
At different time intervals after the cocultivation, samples of embryogenic callus were collected and subjected to a β-glucuronidase assay, using a chromogenic substrate as described by Jefferson et al. (1987; Plant Mol. Biol. Rep. 5: 387-405). The results of these tests are summarized in table 1, and are expressed as the percentage of calli expressing GUS-positive spots.
As a control, experiments were included using tobacco leaf discs co-cultivated with A3311, using mock-inoculated tobacco leaf discs or using mock-inoculated embryogenic cotton callus.

[1] = 100 μM AS only in A3311 resuspension medium M104, cocultivation medium M104 not supplemented
[2] = A3311 resuspended in M104 + 100 μM AS, supplement in cocultivation medium M104
[3] = A3311 resuspended in M104, supplement in cocultivation medium M104
[4] = A3311 resuspended in MAG, supplement in cocultivation medium M104
[5] = no Agrobacterium (mock-inoculated), supplement in cocultivation medium M104

- percentage of calli expressing GUS-positive spots, 8 weeks [1]: Dead
- need for inclusion during Agrobacterium mediated transformation of embryogenic callus (both for transient expression and after prolonged cultivation of the transformed calli): required
- percentage of calli expressing GUS-positive spots, 8 weeks [5]: Dead
SMILES: COc1cc(C(C)=O)cc(OC)c1O [AS, 3,5-dimethoxy-4-hydroxyacetophenone]
- percentage of calli expressing GUS-positive spots, 4 weeks [1]: 0%
- percentage of calli expressing GUS-positive spots, 6 weeks [1]: 0%
- percentage of calli expressing GUS-positive spots, 4 days [1]: 0%
- percentage of calli expressing GUS-positive spots, 11 days [1]: 0%
- percentage of calli expressing GUS-positive spots, 8 weeks [2]: 90% and 50%
- percentage of calli expressing GUS-positive spots, 11 days [2]: 70% and 90%
- percentage of calli expressing GUS-positive spots, 6 weeks [3]: 15% and 25%
- percentage of calli expressing GUS-positive spots, 8 weeks [3]: 20%
- percentage of calli expressing GUS-positive spots, 11 days [3]: 50% and 90%
- percentage of calli expressing GUS-positive spots, 4 days (A3311 resuspended in MAG, supplement in cocultivation medium M104 (100 μM AS and/or 0.5 g/l cas. acids)): 90%
- percentage of calli expressing GUS-positive spots, 4 weeks [4]: 50%
- percentage of calli expressing GUS-positive spots, 6 weeks [4]: 50% and 90%
- percentage of calli expressing GUS-positive spots, 8 weeks [4]: 90% and 80%
- percentage of calli expressing GUS-positive spots, 11 days [4]: 90%
- percentage of calli expressing GUS-positive spots, 4 days (no Agrobacterium (mock-inoculated), supplement in cocultivation medium M104 (100 μM AS and/or 0.5 g/l cas. acids)): 0%
- percentage of calli expressing GUS-positive spots, 4 weeks [5]: 0%
- percentage of calli expressing GUS-positive spots, 6 weeks [5]: 0%
- percentage of calli expressing GUS-positive spots, 11 days [5]: 0%
